Test results taken from patent publication US20260308109A1 (priority 2022, published 2026).
Read-outs that look alike come from different tables or passages of the source.

Legend:
5-HT2A [1] = molecular target: T1, 5-HT2A (Homo sapiens, UniProt P28223); assay: cell-based; assay type: cell-based; design: expressed in transfected cells; host or cells: HEK293; Emax: dose or concentration left out as unconfirmed
5-HT2C [2] = molecular target: T2, 5-HT2C (Homo sapiens, UniProt P28335); assay: cell-based; design: expressed in transfected cells; host or cells: HEK293; Emax: dose or concentration left out as unconfirmed
T2 sequence (P28335 33-458): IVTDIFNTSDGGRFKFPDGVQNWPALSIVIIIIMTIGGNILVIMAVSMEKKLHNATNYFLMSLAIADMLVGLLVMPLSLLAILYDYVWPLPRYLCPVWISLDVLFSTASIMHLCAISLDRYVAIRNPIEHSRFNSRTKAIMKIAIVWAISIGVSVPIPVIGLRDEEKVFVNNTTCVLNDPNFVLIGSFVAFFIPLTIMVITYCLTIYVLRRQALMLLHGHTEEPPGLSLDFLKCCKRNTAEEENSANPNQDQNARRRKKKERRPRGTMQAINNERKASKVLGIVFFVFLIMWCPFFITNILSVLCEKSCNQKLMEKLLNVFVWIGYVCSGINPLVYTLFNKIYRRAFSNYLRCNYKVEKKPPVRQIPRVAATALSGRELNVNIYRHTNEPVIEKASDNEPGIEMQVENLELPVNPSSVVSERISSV

5-HT2B [3] = molecular target: T3, 5-HT2B (Homo sapiens, UniProt P41595); assay: cell-based; assay type: cell-based; design: expressed in transfected cells; host or cells: HEK293; Emax: dose or concentration left out as unconfirmed
5-HT2B [4] = molecular target: T3, 5-HT2B; assay: In vitro receptor binding ([3H]-LSD), 5-HT2B; design: expressed in transfected cells; host or cells: HEK293 (membranes); settings: for Binding ([3H]-LSD) % Inh: 5-HT2B, HEK293 membrane, radioligand 3H-LSD; for affinity at 5-HT2B: in words
5-HT2A [5] = molecular target: T1, 5-HT2A; assay: biochemical; assay type: binding; design: expressed in transfected cells; host or cells: HEK293 (membranes)
5-HT2C [6] = molecular target: T2, 5-HT2C; assay: In vitro receptor binding ([3H]-LSD), 5-HT2C; design: expressed in transfected cells; host or cells: HEK293 (membranes); settings: for Binding ([3H]-LSD) % Inh: 5-HT2C, HEK293 membrane, radioligand 3H-LSD; for affinity at 5-HT2C: in words; for affinity selectivity for 5-HT2C over 5-HT2A: ratio of Ki
[7] = tested on: TNF-α induced inflammation; settings: Yu et al. 2008; cited from earlier work
5-HT2A receptor = settings: Flanagan et al. 2020; cited from earlier work

T1 sequence (P28223 whole entry): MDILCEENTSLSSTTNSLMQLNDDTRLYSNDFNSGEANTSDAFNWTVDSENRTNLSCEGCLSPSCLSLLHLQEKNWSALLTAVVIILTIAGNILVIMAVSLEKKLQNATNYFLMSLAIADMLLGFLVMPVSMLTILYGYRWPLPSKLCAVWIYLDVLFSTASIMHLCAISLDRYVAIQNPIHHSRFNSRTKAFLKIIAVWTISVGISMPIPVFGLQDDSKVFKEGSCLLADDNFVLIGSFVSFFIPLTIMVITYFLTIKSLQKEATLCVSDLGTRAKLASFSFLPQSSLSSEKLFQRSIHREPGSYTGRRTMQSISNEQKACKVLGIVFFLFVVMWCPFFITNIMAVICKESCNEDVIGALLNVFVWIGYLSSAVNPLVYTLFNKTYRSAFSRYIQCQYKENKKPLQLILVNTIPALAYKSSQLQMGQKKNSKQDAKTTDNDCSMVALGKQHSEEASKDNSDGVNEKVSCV
T3 sequence (P41595 whole entry): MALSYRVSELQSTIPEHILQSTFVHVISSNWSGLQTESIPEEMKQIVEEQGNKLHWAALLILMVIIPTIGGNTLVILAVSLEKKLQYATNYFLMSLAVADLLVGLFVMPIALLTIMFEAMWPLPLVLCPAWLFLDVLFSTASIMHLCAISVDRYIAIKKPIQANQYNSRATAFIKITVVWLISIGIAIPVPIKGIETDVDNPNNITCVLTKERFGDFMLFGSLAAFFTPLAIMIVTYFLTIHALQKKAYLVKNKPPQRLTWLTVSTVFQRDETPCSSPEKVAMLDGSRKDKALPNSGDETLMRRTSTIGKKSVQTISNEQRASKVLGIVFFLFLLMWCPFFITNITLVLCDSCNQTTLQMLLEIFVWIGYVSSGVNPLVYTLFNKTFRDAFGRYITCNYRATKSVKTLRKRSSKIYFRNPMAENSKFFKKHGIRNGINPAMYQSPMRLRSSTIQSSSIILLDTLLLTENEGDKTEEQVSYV

Compound	Bottom (5-HT2A [1])	HillSlope (5-HT2A [1])	functional selectivity for 5-HT2A over 5-HT2C (5-HT2A [1])	EC50 (5-HT2A [1]; EC50) [nM]	Emax (5-HT2A [1]; HEK293, read-out: IP-One % MAX) [%]	EC50 (5-HT2A [1]; IP-One EC50) [nM]	Emax (5-HT2A [1]; read-out: Top) [%]	Bottom (5-HT2C [2])	HillSlope (5-HT2C [2])	EC50 (5-HT2C [2]; EC50) [nM]	Emax (5-HT2C [2]; HEK293, read-out: IP-One % MAX) [%]	EC50 (5-HT2C [2]; IP-One EC50) [nM]	Emax (5-HT2C [2]; read-out: Top) [%]	Bottom (5-HT2B [3])	HillSlope (5-HT2B [3])	functional activity at 5-HT2B (5-HT2B [3])	EC50 (5-HT2B [3]; EC50) [nM]	Emax (5-HT2B [3]; HEK293, read-out: IP-One % MAX) [%]	EC50 (5-HT2B [3]; IP-One EC50) [nM]	Emax (5-HT2B [3]; read-out: Top) [%]	other results
COc1cc(I)c(OC)c2c1C(CN)C2 (stereo not drawn) [Compound 2, (3-iodo-2,5-dimethoxybicyclo[4.2.0]octa-1,3,5-trien-7-yl)methanamine]	5.304 % of control	1.338	approximately 4 fold	10.1	127	10	124	3.427 % of control	1.279	58	122	41	136	3.780 % of control	1.531	minimal functional activity	89.1	49	> 300	56.2	Ki (5-HT2B [4]): 28 nM; Binding ([3H]-LSD) % Inh (5-HT2B [4]): 77%; affinity at 5-HT2B (5-HT2B [4]): low nanomolar affinity; Binding ([3H]-LSD) % Inh (5-HT2A [5]): 2A: 17 nM (96%); Ki (5-HT2A [5]): 17 nM; affinity at 5-HT2A (5-HT2A [5]): low nanomolar affinity; affinity selectivity for 5-HT2A over 5-HT2B (5-HT2A [5]): approximately 1.6 fold; Ki (5-HT2C [6]): 3 nM; Binding ([3H]-LSD) % Inh (5-HT2C [6]): 96%; affinity at 5-HT2C (5-HT2C [6]): low nanomolar affinity; affinity selectivity for 5-HT2C over 5-HT2A (5-HT2C [6]): approximately 6 fold
COc1cc(Br)c(OC)c2c1[C@H](CN)C2 [Compound 2C-BCB]																					effect on TNF-α induced inflammation [7]: same effect, albeit slightly less potent
COc1ccc(OC)c(CCN)c1 [Compound 2C-H, 2,5-dimethoxyphenethylamine]																					anti-inflammatory pharmacophore (5-HT2A receptor): primary pharmacophore for anti-inflammatory phenethylamine 5-HT2A receptor agonists
CCc1cc(OC)c2c(c1OC)CC2CN (stereo not drawn) [Compound 4, (3-ethyl-2,5-dimethoxybicyclo[4.2.0]octa-1,3,5-trien-7-yl)methanamine]	−0.4425 % of control	1.033	approximately 2.75 fold	3.77	114	4	108	1.236 % of control	1.410	10.8	104	11	102	−0.2984 % of control	1.088	significant functional activity	27.4	70	70	72.8	functional selectivity for 5-HT2A over 5-HT2B (5-HT2A [1]): approximately 17.5 fold; Ki (5-HT2B [4]): 43 nM; Binding ([3H]-LSD) % Inh (5-HT2B [4]): 73%; affinity at 5-HT2B (5-HT2B [4]): low nanomolar affinity; Binding ([3H]-LSD) % Inh (5-HT2A [5]): 2A: 26 nM (90%); Ki (5-HT2A [5]): 26 nM; affinity at 5-HT2A (5-HT2A [5]): low nanomolar affinity; affinity selectivity for 5-HT2A over 5-HT2B (5-HT2A [5]): approximately 1.6 fold; Ki (5-HT2C [6]): 4 nM; Binding ([3H]-LSD) % Inh (5-HT2C [6]): 89%; affinity at 5-HT2C (5-HT2C [6]): low nanomolar affinity; affinity selectivity for 5-HT2C over 5-HT2A (5-HT2C [6]): approximately 6.5 fold
COc1cc(CC(C)C)c(OC)c2c1C(CN)C2 (stereo not drawn) [Compound 8, (3-isobutyl-2,5-dimethoxybicyclo[4.2.0]octa-1,3,5-trien-7-yl)methanamine]	2.988 % of control	1.426	approximately 4.5 fold	2.4	113	2	120	2.175 % of control	1.285	8.73	117	9	120	−0.5387 % of control	0.5893	moderate functional activity	261000	51	297	51.2	functional selectivity for 5-HT2A over 5-HT2B (5-HT2A [1]): approximately 148.5 fold; Ki (5-HT2B [4]): > 95 nM; Binding ([3H]-LSD) % Inh (5-HT2B [4]): 29%; Binding ([3H]-LSD) % Inh (5-HT2A [5]): 2A: 133 nM (65%); Ki (5-HT2A [5]): 133 nM; Ki (5-HT2C [6]): 4 nM; Binding ([3H]-LSD) % Inh (5-HT2C [6]): 93%; affinity at 5-HT2C (5-HT2C [6]): low nanomolar affinity; affinity selectivity for 5-HT2C over 5-HT2A (5-HT2C [6]): approximately 33 fold
CC1CC(C)N1C(=O)[C@@H]1C=C2c3cccc4[nH]cc(c34)C[C@H]2N(C)C1 (stereo partly drawn) [LA-SS-Az, lysergic acid 2,4-dimethylazetidide]																					effect on TNF-α induced inflammation [7]: same effect, albeit slightly less potent
CCN(CC)C(=O)[C@@H]1C=C2c3cccc4[nH]cc(c34)C[C@H]2N(C)C1 [LSD, lysergic acid diethylamide]																					effect on TNF-α induced inflammation [7]: same effect, albeit slightly less potent
